25 compounds from patent US4804658A, “Imidazopyridine derivatives and pharmaceutical compositions” (G. D. Searle & Co., priority 1986, dated 1989) can be followed below.

For the experiment, the system named is PAF-induced primary aggregation. Kind of experiment: PAF-induced primary aggregation in human platelet-rich plasma. It counts as cell-based. The following applies: indomethacin-treated PRP, test compound incubated two minutes at 37° C. before sub-optimal dose of PAF, read-out: IC50, inhibition of PAF-induced primary aggregation in human platelet-rich plasma. The protocol:
PAF-Induced Primary Aggregation in Human Platelet-Rich Plasma
Human venous blood was collected from healthy male donors, who had denied any medication during the previous 14 days. Nine volumes of blood were mixed with one volume of 3.24% trisodium citrate. The citrated blood was centrifuged at 160 g for ten minutes at 22° C. to obtain platelet rich plasma (PRP). The platelets were then counted on a Coulter counter, and the platelet count was adjusted to 200,000 per μl with plasma. The PRP was then treated with indomethacin dissolved in dimethylsulfoxide (10 μg indomethacin per ml PRP). A stock solution of PAF (C16 or C18 β-acetyl-γ-O-alkyl-L-α-phosphatidylcholine; 1 mg/ml) was prepared as a solution in chloroform-methanol (9:1 v/v). A 10 μl portion of the stock solution was evaporated to dryness under nitrogen and dissolved in 0.15M sodium chloride-0.15M Tris.HCl (90:10 v/v) buffer containing 0.25% bovine albumin. Small volumes of the PAF solution (5-15 μl) were added to 0.5 ml samples of indomethacin-treated PRP and the aggregation trace was recorded using an aggregometer. A dose reponse curve was obtained and a sub-optimal dose of PAF was determined for use in inhibition studies.
Indomethacin-treated PRP (0.5 ml) was incubated with a test compound dissolved in buffer (ca. pH 5) or dimethylsulfoxide for two minutes at 37° C. prior to addition of the sub-optimal dose of PAF. The subsequent aggregation trace was recorded and the present inhibition of PAF primary aggregation was determined by comparison with a control PAF-induced aggregation trace. (Due to variability in PAF-induced aggregation within a given PRP sample, a control PAF-induced aggregation was determined every two or three samples.) An inhibition dose-response curve was determined for each test compound and the IC50 value calculated. Table I lists IC50 's for illustrative examples of the compounds of this invention.

As to `CCOC(=O)c1ccc(Cn2cnc3ccncc32)cc1` [1(A), Ethyl 4-(3H-imidazo[4,5-c]pyridin-3-ylmethyl)benzoate], the IC50 was found to be 136 µM.

`CCOC(=O)c1ccc(Cn2cnc3cnccc32)cc1` [1(B), Ethyl 4-(1H-imidazo[4,5-c]pyridin-1-ylmethyl)benzoate]: the IC50 was determined as 46 µM.

For the compound `CCOC(=O)c1cccc(Cn2cnc3ccncc32)c1` [2(A), Ethyl 3-(3H-imidazo[4,5-c]pyridin-3-ylmethyl)benzoate], the IC50 was found to be 165 µM.

With `CCOC(=O)c1cccc(Cn2cnc3cnccc32)c1` [2(B), Ethyl 3-(1H-imidazo[4,5-c]pyridin-1-ylmethyl)benzoate], the IC50 was 80 µM.

For the compound `CCOC(=O)CCCn1cnc2ccncc21` [6(A), Ethyl 4-(3H-imidazo[4,5-c]pyridin-3-yl)butanoate], the IC50 stood at 140 µM.

On to `CCOC(=O)CCCCn1cnc2ccncc21` [7(A), Ethyl 5-(3H-imidazo[4,5-c]pyridin-3-yl)pentanoate], for which the IC50 amounted to 500 µM.

As to `CCOC(=O)CCCCn1cnc2cnccc21` [7(B), Ethyl 5-(1H-imidazo[4,5-c]pyridin-1-yl)pentanoate], the IC50 came to 185 µM.

Take `CCOC(=O)CCCCCn1cnc2ccncc21` [8(A), Ethyl 6-(3H-imidazo[4,5-c]pyridin-3-yl)hexanoate]: the IC50 came out at 102 µM.

As to `CCOC(=O)CCCCCn1cnc2cnccc21` [8(B), Ethyl 6-(1H-imidazo[4,5-c]pyridin-1-yl)hexanoate], the IC50 was 20.5 µM.

For the compound `CCOC(=O)CCCCCCn1cnc2ccncc21` [9(A), Ethyl 7-(3H-imidazo[4,5-c]pyridin-3-yl)heptanoate], the IC50 was determined as 48 µM.

Consider `CCOC(=O)CCCCCCn1cnc2cnccc21` [9(B), Ethyl 7-(1H-imidazo[4,5-c]pyridin-1-yl)heptanoate], for which the IC50 amounted to 20 µM.

Consider `CCOC(=O)C(C)(C)CCCCn1cnc2ccncc21` [10(A), Ethyl 2,2-dimethyl-6-(3H-imidazo[4,5-c]pyridin-3-yl)hexanoate], for which the 50% inhibitory concentration (IC50) came to 43.5 µM.

In the case of `CCOC(=O)C(C)(C)CCCCn1cnc2cnccc21` [10(B), Ethyl 2,2-dimethyl-6-(1H-imidazo[4,5-c]pyridin-1-yl)hexanoate], the IC50 came out at 15 µM.

In the case of `CN(C(=O)CCCCCCn1cnc2ccncc21)C1CCCCC1` [11(A), N-Cyclohexyl-N-Methyl-7-(3H-imidazo[4,5-c]pyridin-3-yl)heptanamide], the IC50 turned out to be 500 µM.

As to `c1cc2ncn(CCCCc3nnnn3C3CCCCC3)c2cn1` [12(A), 3-[4-(1-Cyclohexyl-1H-tetrazol-5-yl)butyl]-3H-imidazo[4,5-c]pyridine], the IC50 is 56 µM.

As to `c1cc2c(cn1)ncn2CCCCc1nnnn1C1CCCCC1` [12(B), 1-[4-(1-Cyclohexyl-1H-tetrazol-5-yl)butyl]-1H-imidazo[4,5-c]pyridine], the IC50 was found to be 8 µM.

On to `CCOC(=O)c1ccc(Cn2cnc3cccnc32)cc1` [14(A), Ethyl 4-(3H-imidazo[4,5-b]pyridin-3-ylmethyl)benzoate], for which the IC50 was 58 µM.

In the case of `CCOC(=O)c1ccc(Cn2cnc3ncccc32)cc1` [14(B), Ethyl 4-(1H-imidazo[4,5-b]pyridin-1-ylmethyl)benzoate], the IC50 turned out to be 29 µM.

Consider `c1cnc2c(c1)ncn2CCCCc1nnnn1C1CCCCC1` [16(A), 3-[4-(1-Cyclohexyl-1H-tetrazol-5-yl)butyl]-3H-imidazo[4,5-b]pyridine], for which the IC50 turned out to be 118 µM.

In the case of `c1cnc2ncn(CCCCc3nnnn3C3CCCCC3)c2c1` [16(B), 1-[4-(1-Cyclohexyl-1H-tetrazol-5-yl)butyl]-1H-imidazo[4,5-b]pyridine], the half-maximal inhibitory concentration (IC50) came to 112 µM.

For `O=C(c1ccc(Cn2cnc3cnccc32)cc1)N1CCOCC1` [Example 3, [4-(1H-imidazo[4,5-c]pyridin-1-ylmethyl)phenyl](4-morpholinyl)methanone], the IC50 was determined as 49.5 µM.

For `O=C(c1ccc(Cn2cnc3ccncc32)cc1)N1CCOCC1` [Example 4, [4-(3H-imidazo[4,5-c]pyridin-3-ylmethyl)phenyl](4-morpholinyl)methanone], the IC50 was determined as 215 µM.

On to `CN(C(=O)c1ccc(Cn2cnc3cnccc32)cc1)C1CCCCC1` [Example 5, N-Cyclohexyl-N-methyl-4-(1H-imidazo[4,5-c]pyridin-1-yl-methyl)benzamide], for which the IC50 turned out to be 5 µM.

As to `c1cc2c(cn1)ncn2CCCCCc1nnnn1C1CCCCC1` [Example 13, 1-[5-(1-Cyclohexyl-1H-tetrazol-5-yl)pentyl]-1H-imidazo[4,5-c]pyridine], the IC50 was found to be 33 µM.

`O=C(c1ccc(Cn2cnc3ncccc32)cc1)N1CCOCC1` [Example 15, [4-(1H-Imidazo[4,5-b]pyridin-1-ylmethyl)phenyl](4-morpholinyl)methanone]: the IC50 came to 87 µM.

The term IC50 denotes the concentration at which inhibition is half-maximal.
